Where a name gives a salt, the structure may show the parent alone.
Key:
[1] = system: experimental sclerosis rabbits; test: Change of Aortic Pulse Wave Velocity (ΔPWV) in experimental sclerosis rabbits; type: in vivo, Male Japanese white rabbits
Text: (§1) In this example, the effects of the present compound on the wall of a blood vessel, a serum lipid and a blood glucose level were studied on the experimental sclerosis rabbits from the determination of the arterial sclerosis action, the assay of the components constituting the wall of the blood vessel and the transitional analysis of the damage of the blood wall with time.
(§2) Male Japanese white rabbits (25 months age) were randomly divided into three groups. A normal diet was given to one group (called hereafter "healthy group"). The remaining two groups were fed with 100 g/day of a high α-starch, high salinity and low protein, sclerosis diet containing 0.3% cholesterol (manufactured by Funabashi Farm), simultaneously injected intramuscularly with norepinephrine (3 mg) and bred for 150 days. One group of them was called hereafter "sclerosis group". […] Every 50 days, Aortic Pulse Wave Velocity (PWV) was measured to determine a average hardness of aorta of the rabbits. After five months and just before slaughter of the rabbits, blood was drawn to determine cholesterol in blood (T-Cho), triglyceride (TG), β-lipoprotein (β-Lp), HDL choresterol and a blood glucose level. After slaughter, a fifth intercostal pars in the thoracic aorta was extracted and then subjected to formalin fixation and embedding in paraffin. Subsequently, each component of smooth muscle cell (SMC), elastin (EL), collagen (CL), glycosaminoglycan (GAGs), PAS positive substance (PAS), calcium (Ca) and cholesterol (Cho) was histochemically observed and assayed.
PWV is increasing with the advance of growth, maturation and ageing. Thus an increase in PWV value is an indication of arterial sclerosis (see Arterial Sclerosis, vol. 8, No. 1 April 1980, pp 91-95).

Wall of Aorta = test: Proportion of components constituting the wall of aorta (histochemical assay, fifth intercostal pars of thoracic aorta); type: in vivo, Male Japanese white rabbits
Text: as §1, §2

[2] = Serum lipid and blood glucose level in experimental sclerosis rabbits; type: in vivo, Male Japanese white rabbits; settings: rabbit, oral 3 mg once per day, after five months
Text: as §1, §2

in vivo = settings: mouse, in vivo, po, average
mice = test: in vivo; settings: oral
[3] = rabbit, oral 3 mg once per day, after 150 days

Compound: Cl.Cn1cc(OCC(O)CNC(C)(C)C)c2ccccc2c1=O (racemic) [(±)-4-(3-tert.-butylamino-2-hydroxypropoxy)-2-methyl-1 (2H)-isoquinolinone hydrochloride]
- PWV as compared with the sclerosis group ([1]; 150 days, vs sclerosis group): significantly improved
- Δ PWV, 0-50 days ([1]; rabbit, sclerosis diet + norepinephrine i.m., oral capsule 3 mg once per day, 0-50 days): -0.110 m/sec
- Δ PWV, 51-100 days ([1]; rabbit, sclerosis diet + norepinephrine i.m., oral capsule 3 mg once per day, 51-100 days): -0.290 m/sec
- Δ PWV, 101-150 days ([1]; rabbit, sclerosis diet + norepinephrine i.m., oral capsule 3 mg once per day, 101-150 days): -0.890 m/sec
- Improvement in arterial sclerosis (Wall of Aorta; Table 2, drug administered group): remarkable improvement in arterial sclerosis
- Proportion of PAS positive substance (PAS) in the wall of aorta (Wall of Aorta; [3]): 27.83 % E
- Proportion of calcium (Ca) in the wall of aorta (Wall of Aorta; [3]): 1.92 % E
- Proportion of cholesterol (Cho) in the wall of aorta (Wall of Aorta; [3]): 0.68 % E
- Proportion of collagen (CL) in the wall of aorta (Wall of Aorta; [3]): 30.33 % E
- Proportion of elastin (EL) in the wall of aorta (Wall of Aorta; [3]): 40.56 % E
- Proportion of glycosaminoglycan (GAGs) in the wall of aorta (Wall of Aorta; [3]): 16.03 % E
- Proportion of smooth muscle cell (SMC) in the wall of aorta (Wall of Aorta; [3]): 46.72 % E
- Blood glucose level [2]: 162.50 mg/dL
- Cholesterol in blood (T-Cho) [2]: 25.25 mg/dL
- HDL cholesterol (HDL-C) [2]: 15.44 mg/dL
- Triglyceride (TG) [2]: 65.40 mg/dL
- β-lipoprotein (β-Lp) [2]: 2.75 mg/dL
- LD50 (in vivo; female mice): 1290 mg/kg
- LD50 (in vivo; male mice): 1390 mg/kg

Compound: CC(C)(C)NCC(O)COc1c[nH]c(=O)c2ccccc12 (centres unmarked) [4-(3-tert.-butylamino-2-hydroxypropoxy)-1-isoquinolinonehydrochloride]
- LD50 (in vivo; female mice): 1290 mg/kg
- LD50 (in vivo; male mice): 1390 mg/kg
- LD50, range in parentheses (mice; female mice): 1063 to 1566 mg/kg
- LD50, range in parentheses (mice; male mice): 1223 to 1587 mg/kg

From US5441962A, “Method for treating hyperlipemia” (priority 1992, dated 1995)
